Measured values taken from US12077503B2, “Substituted cyclic amides and their use as herbicides” (FMC CORPORATION, priority 2015, dated 2024).
Read-outs that look alike come from different tables or passages of the source.

Experiments:
Kochia (Kochia scoparia) = assay: Test A preemergence; assay type: in vivo; settings: Bassia scoparia, pre-emergence, 240 h; for pest or weed control at 125 g/ha: 125 g ai/ha; for pest or weed control at 500 g/ha: 500 g ai/ha
Method in brief: (§1)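 Preemergence directed soil spray on seeded pots, or postemergence application to plants 2–10 cm, one- to two-leaf. Solvent mixture non-phytotoxic, with surfactant. Scored ~10 d later, visually, 0–100 vs untreated.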

[1] = system: ragweed (common ragweed, Ambrosia elatior); assay: Test A preemergence; assay type: in vivo; settings: Ambrosia artemisiifolia, pre-emergence, 240 h; for pest or weed control at 125 g/ha: 125 g ai/ha; for pest or weed control at 500 g/ha: 500 g ai/ha
Method in brief: as §1

[2] = system: barnyardgrass (Echinochloa crus-galli); assay: Test A preemergence; assay type: in vivo; settings: Echinochloa crus-galli, pre-emergence, 240 h; for pest or weed control at 125 g/ha: 125 g ai/ha; for pest or weed control at 500 g/ha: 500 g ai/ha
Method in brief: as §1

[3] = system: ryegrass, Italian (Italian ryegrass, Lolium multiflorum); assay: Test A preemergence; assay type: in vivo; settings: Lolium multiflorum, pre-emergence, 240 h; for pest or weed control at 125 g/ha: 125 g ai/ha; for pest or weed control at 500 g/ha: 500 g ai/ha
Method in brief: as §1

[4] = system: giant foxtail (Setaria faberii); assay: Test A preemergence; assay type: in vivo; settings: Setaria faberi, pre-emergence, 240 h; for pest or weed control at 125 g/ha: 125 g ai/ha; for pest or weed control at 500 g/ha: 500 g ai/ha
Method in brief: as §1

[5] = preemergence, 0 to 100 scale where 0 is no effect and 100 is complete control, approx. 10 d, read-out: Kochia plant response rating
[6] = preemergence, 0 to 100 scale where 0 is no effect and 100 is complete control, approx. 10 d, read-out: Ragweed plant response rating
[7] = preemergence, visual injury rating about 10 d after treatment, 0 to 100 scale (0 no effect, 100 complete control), read-out: Barnyardgrass plant response rating
[8] = preemergence, 0 to 100 scale where 0 is no effect and 100 is complete control, approx. 10 d, read-out: Ryegrass, Italian plant response rating
[9] = preemergence, 0 to 100 scale where 0 is no effect and 100 is complete control, read-out: Kochia plant response rating
[10] = Preemergence, visual injury vs untreated controls after approximately 10 d, read-out: Kochia plant response rating (0 to 100 scale where 0 is no effect and 100 is complete control)
[11] = preemergence, 0 to 100 scale where 0 is no effect and 100 is complete control, read-out: Ragweed plant response rating
[12] = Preemergence, visual injury vs untreated controls after approximately 10 d, read-out: Ragweed plant response rating (0 to 100 scale where 0 is no effect and 100 is complete control)
[13] = preemergence, 0 to 100 scale where 0 is no effect and 100 is complete control, read-out: Barnyardgrass plant response rating
[14] = Preemergence, visual injury vs untreated controls after approximately 10 d, read-out: Barnyardgrass plant response rating (0 to 100 scale where 0 is no effect and 100 is complete control)
[15] = preemergence, 0 to 100 scale where 0 is no effect and 100 is complete control, read-out: Ryegrass, Italian plant response rating
[16] = Preemergence, visual injury vs untreated controls after approximately 10 d, read-out: Ryegrass, Italian plant response rating (0 to 100 scale where 0 is no effect and 100 is complete control)
[17] = preemergence, 0 to 100 scale where 0 is no effect and 100 is complete control, read-out: Foxtail, Giant plant response rating
[18] = Preemergence, visual injury vs untreated controls after approximately 10 d, read-out: Foxtail, Giant plant response rating (0 to 100 scale where 0 is no effect and 100 is complete control)
[19] = preemergence, visual injury rating, 0 to 100 scale where 0 is no effect and 100 is complete control, approximately 10 d, read-out: Kochia plant response rating
[20] = preemergence, visual injury rating, 0 to 100 scale where 0 is no effect and 100 is complete control, approximately 10 d, read-out: Ragweed plant response rating
[21] = preemergence, visual injury rating, 0 to 100 scale where 0 is no effect and 100 is complete control, approximately 10 d, read-out: Barnyardgrass plant response rating
[22] = preemergence, visual injury rating, 0 to 100 scale where 0 is no effect and 100 is complete control, approximately 10 d, read-out: Ryegrass, Italian plant response rating
[23] = preemergence, visual injury rating, 0 to 100 scale where 0 is no effect and 100 is complete control, approximately 10 d, read-out: Foxtail, Giant plant response rating
[24] = preemergence, 0 to 100 scale where 0 is no effect and 100 is complete control, approx. 10 d, read-out: Barnyardgrass plant response rating
[25] = preemergence, 0 to 100 scale where 0 is no effect and 100 is complete control, approx. 10 d, read-out: Foxtail, Giant plant response rating

| SMILES | pest or weed control at 125 g/ha (Kochia (Kochia scoparia); [5]) [%] | pest or weed control at 125 g/ha [1, 6] [%] | pest or weed control at 125 g/ha [3, 8] [%] | pest or weed control at 125 g/ha (Kochia (Kochia scoparia); [9]) [%] | pest or weed control at 500 g/ha (Kochia (Kochia scoparia); [10]) [%] | pest or weed control at 125 g/ha [1, 11] [%] | pest or weed control at 500 g/ha [1, 12] [%] | pest or weed control at 125 g/ha [2, 13] [%] | pest or weed control at 500 g/ha [2, 14] [%] | pest or weed control at 125 g/ha [3, 15] [%] | pest or weed control at 500 g/ha [3, 16] [%] | pest or weed control at 125 g/ha [4, 17] [%] | pest or weed control at 500 g/ha [4, 18] [%] | pest or weed control at 500 g/ha (Kochia (Kochia scoparia); [9]) [%] | pest or weed control at 500 g/ha [1, 11] [%] | pest or weed control at 500 g/ha [2, 13] [%] | pest or weed control at 500 g/ha [3, 15] [%] | pest or weed control at 500 g/ha [4, 17] [%] | also measured |
| --- | --- | --- | --- | --- | --- | --- | --- | --- | --- | --- | --- | --- | --- | --- | --- | --- | --- | --- | --- |
| CN1CC(c2ccccc2OC(F)(F)C(F)F)C(C(=O)Nc2cccc(F)c2F)C1=O (stereo not drawn) [Compound 1056] | 0 | 0 | 0 |  |  |  |  |  |  |  |  |  |  |  |  |  |  |  | pest or weed control at 500 g/ha (Kochia (Kochia scoparia); preemergence, visual injury rating about 10 d after treatment, 0 to 100 scale (0 no effect, 100 complete control), read-out: Kochia plant response rating): 0%; pest or weed control at 500 g/ha ([1]; preemergence, visual injury rating about 10 d after treatment, 0 to 100 scale (0 no effect, 100 complete control), read-out: Ragweed plant response rating): 0%; pest or weed control at 125 g/ha ([2]; Preemergence, visual injury rating after approximately 10 d, read-out: Barnyardgrass plant response rating (0 to 100 scale, 0 is no effect, 100 is complete control)): 90%; pest or weed control at 500 g/ha [2, 7]: 90%; pest or weed control at 500 g/ha ([3]; preemergence, visual injury rating about 10 d after treatment, 0 to 100 scale (0 no effect, 100 complete control), read-out: Ryegrass, Italian plant response rating): 0%; pest or weed control at 125 g/ha ([4]; Preemergence, visual injury rating after approximately 10 d, read-out: Foxtail, Giant plant response rating (0 to 100 scale, 0 is no effect, 100 is complete control)): 60%; pest or weed control at 500 g/ha ([4]; preemergence, visual injury rating about 10 d after treatment, 0 to 100 scale (0 no effect, 100 complete control), read-out: Foxtail, Giant plant response rating): 90%; melting point: 130 to 134 °C |
| CN1CC(c2cccc(C=O)c2)C(C(=O)Nc2ccccc2F)C1=O (stereo not drawn) [Compound 844] |  |  |  | 0 | 0 | 0 | 0 | 0 | 20 | 0 | 0 | 0 | 30 |  |  |  |  |  | melting point: 133 to 136 °C |
| Cc1c(F)cccc1NC(=O)[C@H]1C(=O)N(C)C[C@@H]1c1ccc(F)cc1 [Compound 1235] |  |  |  |  |  |  |  |  |  |  |  |  |  | 80 | 90 | 100 | 60 | 100 | pest or weed control at 125 g/ha (Kochia (Kochia scoparia); [19]): 60%; pest or weed control at 125 g/ha [1, 20]: 70%; pest or weed control at 125 g/ha [2, 21]: 100%; pest or weed control at 125 g/ha [3, 22]: 50%; pest or weed control at 125 g/ha [4, 23]: 100% |
| CN1C[C@H](c2ccc(C(F)(F)F)cc2)[C@@](F)(C(=O)Nc2cccc(F)c2F)C1=O (racemic) [Compound 1151] | 70 | 0 | 70 |  |  |  |  |  |  |  |  |  |  | 80 | 60 | 100 | 70 | 100 | pest or weed control at 125 g/ha [2, 24]: 90%; pest or weed control at 125 g/ha [4, 25]: 100% |
| Cc1cc(C)cc([C@H]2CN(C)C(=O)[C@@H]2C(=O)Nc2ccccc2F)c1 [Compound 910] |  |  |  | 60 | 90 | 0 | 0 | 90 | 100 | 50 | 60 | 90 | 100 |  |  |  |  |  |  |
| CN1CC[C@H](c2ccc(F)cc2)[C@@H](C(=O)Nc2ccccc2F)C1=O [Compound 917] |  |  |  | 0 | 0 | 0 | 0 | 20 | 80 | 0 | 0 | 30 | 90 |  |  |  |  |  |  |
| COc1cc([C@H]2CN(C)C(=O)[C@@H]2C(=O)Nc2ccccc2SC)cc(C(F)(F)F)c1 [Compound 857] |  |  |  | 0 | 30 | 0 | 30 | 90 | 90 | 40 | 60 | 80 | 90 |  |  |  |  |  |  |
| CC(C)(C)c1ccc([C@H]2CNC(=O)[C@@H]2C(=O)Nc2cccc(F)c2F)cc1 [Compound 847] |  |  |  | 0 | 0 | 0 | 0 | 0 | 60 | 0 | 0 | 0 | 50 |  |  |  |  |  |  |
| CN1C[C@H](c2cscn2)[C@@H](C(=O)Nc2cccc(F)c2F)C1=O [Compound 1113] | 0 | 0 | 0 |  |  |  |  |  |  |  |  |  |  | 0 | 0 |  | 0 | 0 | pest or weed control at 125 g/ha [2, 24]: 0%; pest or weed control at 500 g/ha [2, 7]: 0%; pest or weed control at 125 g/ha [4, 25]: 0% |
| COc1ccc([C@H]2CN(C)C(=O)[C@@H]2C(=O)Nc2cccc(F)c2F)c(OC)c1 [Compound 1209] |  |  |  |  |  |  |  |  |  |  |  |  |  | 90 | 90 | 90 | 50 | 100 | pest or weed control at 125 g/ha (Kochia (Kochia scoparia); [19]): 60%; pest or weed control at 125 g/ha [1, 20]: 60%; pest or weed control at 125 g/ha [2, 21]: 90%; pest or weed control at 125 g/ha [3, 22]: 0%; pest or weed control at 125 g/ha [4, 23]: 90% |
